For `O=S(=O)(c1ccc(/C=C/c2nc(COc3ccc(CCCCn4ccnn4)cc3)co2)cc1)C(F)(F)F`, the melting point (commonly the temperature of the solid-liquid transition) fell in the range of 133 to 135 °C.
With `O=C(NCCOc1ccc(-c2ccccc2)cc1)N[C@@H](Cc1ccccc1)C(=O)O` the figure was 175 °C; with `c1cc(CCCCCc2nnn[nH]2)n2cncc2c1`, 149 to 150 °C.
With `C=CCn1c(-c2cccnc2)n[nH]c1=O` the figure was 120 to 125 °C.
In the case of `O=C(Nc1c([N+](=O)[O-])cc(C(F)(F)F)cc1[N+](=O)[O-])C(F)(F)F`, the melting point fell in the range of 222 to 224 °C.
With `O=C(OC1CCN(c2ccc3[nH]c(=O)ccc3c2)CC1)c1ccccc1` the figure was 212 to 215 °C; with `Oc1ccc2ccc(OCc3ccccc3)cc2c1`, 152 to 154 °C.
With `COc1nsc2c1C(=O)CCC2` the figure was 45 to 46 °C.
As for `CCC(CC)(CC(=O)Nc1ccc2ccc(OCc3ccc4cc(F)ccc4n3)cc2c1)C(=O)O`, the melting point fell in the range of 191 to 196 °C.
With `Cn1c(=O)c2c(nc(C=Cc3cccc(C(F)(F)F)c3)n2C)n(C)c1=O` the figure was 232 to 236 °C; with `CCOc1cnc(C2=NC(=O)C(C)(C(C)C)N2)c(C(=O)O)c1` (centres undefined), 140 to 144 °C; with `O=C(O)CN1CCN2C(=O)N(c3cc(Cl)cc(Cl)c3)C(=O)C2(Cc2ccc(Br)cc2)C1` (centres undefined), 236 °C.
`O=CCN1CCc2ccc(Br)cc2C1=O`: the melting point fell in the range of 95 to 96 °C.
With `CC(C)Nc1cncc(C#N)c1` the figure was 82 °C; with `O=Cc1cc2cccc3ccc4cccc1c4c32`, 172 to 174 °C.
With `COc1cc(Nc2c(C#N)cnc3cc(-c4ccc(C5OCCO5)o4)ccc23)c(Cl)cc1Cl` the figure was 224 to 229 °C; with `Cc1cccc(C(N)=O)c1NS(=O)(=O)c1nc2scc(C)n2n1`, 217 to 218 °C; with `O=C(O)C1=Cc2cc(Cl)c(Cl)cc2SC1C(F)(F)F` (centres undefined), 262 to 264 °C.
Turning to `COc1c(N2CCC(CN)(CF)C2)c(F)cc2c(=O)c(C(=O)O)cn(C3CC3)c12` (centres undefined), the melting point is 188 to 190 °C.
With `COc1ccc([N+](=O)[O-])c2c1OCC(C(=O)O)C2` (centres undefined) the figure was 181 to 183 °C; with `O=C(N1CC2CC2(c2ccc(Cl)cc2)C1)C12CC3CC(CC(C3)C1)C2` (centres undefined), 72 to 75 °C.
With `Cc1cc(OCc2coc(/C=C/c3ccc(S(=O)C(F)(F)F)cc3)n2)ccc1CCCCn1ccnn1` (centres undefined) the figure was 113 to 114 °C; with `Cc1sc2c(c1C(=O)c1ccc(S(C)=O)cc1)CCC2C(=O)O` (centres undefined), 209 to 213 °C; with `CC(C)(C)OC(=O)C(O)CC1CCC(=O)N1` (centres undefined), 110 to 112 °C.
With `CON=C1COc2cc(OCc3ccccc3N(OC)C(=O)OC)ccc21` the figure was 102 to 103 °C; with `Cc1ccc(C2CCCN2S(=O)(=O)c2ccc(C)cc2)cc1` (racemic), 124 °C.
On to `CC(C)(C)c1cc(SC(Sc2cc(C(C)(C)C)c(O)c(C(C)(C)C)c2)C2CC=CCC2)cc(C(C)(C)C)c1O` (centres undefined), for which the melting point was in the range of 122 to 125 °C.
With `NS(=O)(=O)C1(C2C(Cl)=CC=CN2C(F)(F)F)C=CC(Cl)=CC1Cl` (centres undefined) the figure was 125 to 126 °C.
With `C/C=C/Cn1nc(C(=O)c2cccc(O)c2)c2ccccc21` the figure was 75 to 78 °C; with `CC=COC1=C(O)C(CCC=CCCCCCCCCCCCCCC)OC1=O` (centres undefined), 42 to 45 °C; with `CC(=O)N1C(C)(C)CC(OC(=O)CC(c2cc(C(C)(C)C)c(O)cc2C)c2cc(C(C)(C)C)c(O)cc2C)CC1(C)C`, 270 °C.
With `CC(C)(C)OC(=O)N1CC2CC(CN(CCCOc3ccc(C#N)cc3O)C2)C1` the figure was 127 to 130 °C; with `CN1C(=O)C(c2ccc(OC(F)F)cc2)(c2cccc(COCCF)c2)N=C1N` (centres undefined), 40 to 43 °C; with `CCOc1ccc([C@@H]2CCNC(=O)[C@H]2c2ccccc2)cc1` (relative stereo), 161 to 162 °C.
In turn, `Cc1ccc(C(=O)SCC2C(=O)OCC2c2ccc(Cl)cc2)cc1` (centres undefined) showed a melting point of 99 to 100 °C.
Consider `CN(C)C(=O)Nc1ccc(SCc2nc(Cl)ccc2Cl)cc1`, for which the melting point lay in the range of 112 to 114 °C.
With `COC(=O)NCC(C)(C)c1ccc(NC(=O)c2ccc(OC)c(OC)c2)cc1` the figure was 67 to 69 °C; with `CCCOCCOc1ccc(-c2ccc3c(c2)C=C(C(=O)O)CCN3CCCOC)cc1`, 114 to 115 °C.
With `O=C(Cl)C1CCCCC1` the figure was 41 to 42 °C; with `COc1cc(N)c(I)cc1C(=O)NC1(C)CCN(CCCOc2ccc(F)cc2)CC1`, 144 °C.
With `COc1ccc(OCCCCCCO)cc1` the figure was 63 to 64 °C; with `CCCCOc1cc(CCS(=O)(=O)NC(=O)OCc2ccccc2)n(Cc2ccc(Cl)cc2Cl)n1`, 92 to 95 °C; with `Cc1nc(-n2ccc(C(=O)Nc3ccccc3)cc2=O)sc1C(=O)NCc1ccccc1`, 243 to 245 °C.
`NC(=O)Cn1cc2c(c1)-c1ccc(Cl)cc1C(c1ccccc1)=NC2` gave a melting point of 236 to 237 °C.
With `O=C(c1ccccc1)N1CC2CC=Cc3cccc1c32` (centres undefined) the figure was 89 to 91 °C; with `O=CNNc1cccc(NC(=S)Nc2ccccc2)c1`, 143 to 145 °C.
With `CC(C)(C)OC(=O)N1C[C@@H]2Cc3cc4ccccc4n3C[C@@H]2C1` (relative stereo) the figure was 143 to 144 °C; with `Cc1cc(Br)cnc1CCCCNc1ncc(Cc2cccnc2)cc1O`, 164 to 166 °C; with `CC(=O)SCC(C)C1CCC2C3CCC4=C(N)C(=O)CCC4(C)C3CCC12C` (centres undefined), 173 to 176 °C.
With `Cc1cccc2c(=O)cc(N3CCOCC3)oc12` the figure was 148 °C.
Regarding `O=C(OCc1cc(OCCCBr)c(OCCCBr)c(OCCCBr)c1)c1ccccc1`, the melting point was 53 to 54 °C.
With `COc1cc2c(cc1-c1ccccc1)CCCc1c-2nc2ccc(F)cc2c1C(=O)O` the figure was greater than 300 °C.
With `NC(=O)c1cc(OCCNCC(O)c2ccc(OCc3ccccc3)cc2)ccc1O` (centres undefined) the figure was 160 to 162 °C; with `N#CC1=C(c2ccccc2)Oc2ccccc2O1`, 85 to 86 °C; with `CCCN1C(=O)N2CCN=C2c2[nH]cnc21`, 283 to 285 °C.
With `COc1ccc([N+](=O)[O-])c(CCc2cc(OC)ccc2[N+](=O)[O-])c1` the figure was 193 to 195 °C.
For `C=C(C)CN1C(=O)c2ccccc2Oc2ncccc21`, the melting point was in the range of 106 to 107 °C.
With `COc1ccccc1NS(=O)(=O)c1ccc(N2CCNC2=O)cc1` the figure was 209 to 211 °C; with `CCc1ccc2scc(CCNC(C)=O)c2c1`, 87 to 88 °C; with `CC(=O)N1CCSC1c1nsc2ccc(-n3c(=O)cc(C(F)(F)F)n(C)c3=O)cc12` (centres undefined), 135 to 140 °C.
For `Cc1cc(=O)n2cccc(OCc3ccccc3C(F)(F)F)c2n1`, the melting point was in the range of 130 to 132 °C.
Take `CCCc1c(O)ccc2[nH]c(C(=O)OCC)cc12`: the melting point was in the range of 185 to 186 °C.
With `CCCc1nnc(Cc2cn(-c3ccccc3)nc2OCc2ccc(OCc3nc(-c4ccco4)oc3C)c(OC)c2)o1` the figure was 102 to 103 °C; with `CCC1c2ccc(C#N)n2-c2ccc(F)cc2N1S(=O)(=O)c1ccc(O)cc1` (centres undefined), 169 to 171 °C; with `CN(C)C(=O)CCc1c2n(c(=O)c3ccccc13)CCc1ccccc1-2`, 192 to 194 °C.
With `CNC(=S)NCCCCc1nccs1` the figure was 130 to 132 °C; with `CCc1cnc2c(NC(=O)c3c(Cl)cccc3Cl)cccc2c1C(N)=O`, 247 to 248 °C.
With `COc1cc2ncc(C#N)c(Nc3ccccc3C(N)=O)c2cc1OC` the figure was 238 to 240 °C; with `COc1ccccc1C1(C(C)C)C(=O)N(C)c2ccccc21` (centres undefined), 113 to 115 °C.
For `FC(F)(F)Oc1ccc(-c2nccc(Cl)n2)cc1`, the melting point was in the range of 70 to 73 °C.
`COc1ccc(C(=O)C2=C(c3ccccc3)c3ccc(OC)cc3C2)cc1` displayed a melting point of 113 to 114 °C.
With `CC(C#N)(c1ccccc1)c1cccnn1` (centres undefined) the figure was 114 to 115 °C; with `ClCc1ncn2c1CN=C(c1ccccc1Cl)c1cc(Cl)ccc1-2`, 165 °C.
The compound `CC(C)(C)C(O)(Cn1cncn1)C1CCCCC1` (centres undefined) returned a melting point of 100 to 102 °C.
With `O=S(=O)(Nc1cc(Cl)ccc1Cl)c1cc(S(=O)(=O)Nc2cc(Cl)ccc2Cl)c2cc(O)ccc2c1` the figure was 214 to 216 °C; with `CCCCc1nc2c(C(F)(F)F)cccc2c(O)c1C(=O)O`, 140 to 141 °C.
With `COc1ccc(N2C(=O)C(=C3CCCN3)c3ccccc32)cc1F` the figure was 169 to 171 °C; with `CCCNC(=O)NS(=O)(=O)c1ccccc1I`, 211 to 212 °C.
With `COC(=O)C(=C1NCCCS1)[N+](=O)[O-]` the figure was 107 to 108 °C; with `CCCCCCCCS(=O)(=O)NCCCCOc1ccc(-n2ccnc2)cc1`, 99 to 100 °C.
In the case of `CSc1ccccc1-n1ncc(-c2ccc(S(C)(=O)=O)cc2)c(-c2ccc(F)cc2)c1=O`, the melting point lay within 206 to 208 °C.
With `Cn1cc(Br)nc(Nc2cnn(CCO[Si](C)(C)C(C)(C)C)c2)c1=O` the figure was 172 to 173 °C; with `O=C1c2ccccc2C(=O)N1CC(=O)N1c2ccccc2N(Cc2ccccc2)C(=O)C(Cc2ccccc2)C1c1ccccc1` (centres undefined), 255 to 256 °C.
With `COc1ccc(-c2ccc(=O)n(Cc3nc(-c4ccc(F)cc4)no3)c2)cc1` the figure was 123 °C.
Take `CC(C)(C)OC(=O)N1CCC(CNC(=O)c2cc(Cl)c(N)c3c2OCC3)C(O)C1` (centres undefined): the melting point came out at 218 °C.
With `CNc1cccc(-c2ccc3nnc(C)n3n2)c1` the figure was 223 to 226 °C; with `O=C1c2ccccc2SCN1CCO[N+](=O)[O-]`, 68 to 69 °C; with `COC(=O)/C(=C/c1cccc(OC)c1)c1cc(OC)c(OC)c(OC)c1`, 87 to 88 °C.
With `CSc1ccc2c(c1)CCN2C(=O)Nc1cccnc1` the figure was 160 to 162 °C.
